# Results: PMC8632988, “Inhibition of SYK and cSrc kinases can protect bone and cartilage in preclinical models of osteoarthritis and rheumatoid arthritis” (Scientific Reports, 2021)
# Where “and” joins values, the source holds several entries; their conditions need not be identical. Identical values can stand only once.
# Tested on: DBA/1 mice, CIA model
# Test: Collagen-induced arthritis model in mice
# Format: in vivo, mouse
# Design: Total AUC Sum (d1-11) / Total AUC Sum (d1-11), Mean: scale not given here
# Method: Collagen-induced arthritis (CIA) model was performed at Bolder BioPATH, USA. Study design and animal usage was approved by Bolder BioPATH’s Institutional Animal Care and Use Committee. CIA was induced in 6–7 week old male DBA/1 mice with body weight of 15–26 g (Harlan, Inc) by intradermal injection of Freund’s Complete Adjuvant (Difco) containing bovine type II collagen (Bolder BioPATH) on day 0 and again on day 21 according to the standard protocol. […] After that mice were randomized into six groups: a control group of four, vehicle group and four treatment groups of ten mice each. […] Each paw was scored daily for inflammation. Therapeutic and prophylactic paws were considered. At study termination mice were euthanized by CO2 inhalation followed by cervical dislocation. Fore paws, hind paws, and knees were removed for microscopy.
# Mice were weighed on arthritis days 1, 3, 5, 7, 9, and 11 (prior to necropsy). Daily clinical scores were given for each of the paws (right front, left front, right rear, left rear) on days 1–11 using the following criteria:
# After 1–2 days in fixative and 4–5 days in 5% formic acid for decalcification, tissues were trimmed, processed for paraffin embedding, sectioned at 8 µm and stained with toluidine blue. Hind paws and knees were embedded and sectioned in the frontal plane. Two joints from each animal were processed for histopathology evaluation. The joints were then scored by two independent readers as indicated below. When scoring, severity of changes as well as number of individual joints affected were considered. When only 1–3 joints of the paws or ankles out of a possibility of numerous metacarpal/metatarsal/digit or tarsal/tibiotarsal joints were affected, an arbitrary assignment of a maximum score of 1, 2 or 3 for parameters below was given depending on severity of changes. If more than 3 joints were involved, the criteria below were applied to the most severely affected/majority of joints.
# [1] = all joints, MT-SYK-03 103 mg/kg PO, BID (Group 4)
# [2] = all joints, MT-SYK-03 103 mg/kg PO, BID (Group 4), group mean
# [3] = all joints, MT-SYK-03 103 mg/kg PO, BID (Group 4), individual animals, 103 mg/kg
smiles,measurement,setting,value
COc1cc(Nc2ncnc(Nc3cc4c(cn3)NC(=O)C(C)(C)O4)n2)cc(OC)c1OC [MT-SYK-03],"% inhibition to Vehicle, Summed Prophylactic (Non-Enrollment) Paw Score","MT-SYK-03 103 mg/kg PO, BID, Day 11",17%
same,Summed Prophylactic (Non-Enrollment) Paw Score,"MT-SYK-03 103 mg/kg PO, BID, Day 11, group mean",7.30
same,Summed Prophylactic (Non-Enrollment) Paw Score,"MT-SYK-03 103 mg/kg PO, BID, Day 11, individual animals, 103 mg/kg",9 and 3 and 12 and 8 and 2 and 10 and 7 and 5
same,"Total AUC Sum (d1-11), Prophylactic (Non-Enrollment) Paw Score","MT-SYK-03 103 mg/kg PO, BID, group mean",54.15
same,"Total AUC Sum (d1-11), Prophylactic (Non-Enrollment) Paw Score","MT-SYK-03 103 mg/kg PO, BID, individual animals, 103 mg/kg",67.5 and 27.5 and 71.0 and 61.0 and 12.0 and 80.0 and 70.5 and 51.5 and 63.0 and 37.5
same,"% inhibition, Bone Resorption score",[1],29%
same,"% inhibition, Cartilage Damage score",[1],17%
same,"% inhibition, Inflammation score",[1],7%
same,"% inhibition, Pannus score",[1],29%
same,"% inhibition, Periosteal Bone Formation score",[1],18%
same,"% inhibition, Periosteal Bone Width",[1],20%
same,"% inhibition, Summed Scores",[1],18%
same,"Histopathology Scores Bone Resorption, Mean",[2],1.23
same,"Histopathology Scores Cartilage Damage, Mean",[2],2.74
same,"Histopathology Scores Inflammation, Mean",[2],3.44
same,"Histopathology Scores Pannus, Mean",[2],1.23
same,"Histopathology Scores Periosteal Bone Formation, Mean",[2],0.93
same,"Histopathology Scores Summed Scores, Mean",[2],9.58
same,"Periosteal Bone Width (40*25x measure), Mean",[2],79.33 μm
same,Histopathology Scores Bone Resorption,[3],0.83 and 0.75 and 1.17 and 1.92 and 1.42 and 2.00 and 1.75 and 0.33
same,Histopathology Scores Cartilage Damage,[3],2.33 and 2.00 and 2.58 and 4.00 and 1.67 and 2.75 and 4.17 and 3.25 and 0.67
same,Histopathology Scores Inflammation,[3],2.83 and 3.17 and 3.83 and 4.67 and 1.92 and 3.42 and 4.50 and 4.33
same,Histopathology Scores Pannus,[3],0.83 and 0.75 and 1.17 and 1.92 and 1.42 and 2.00 and 1.75 and 0.33
same,Histopathology Scores Periosteal Bone Formation,[3],0.67 and 1.17 and 1.33 and 0.33 and 1.67 and 0.83
same,Histopathology Scores Summed Scores,[3],7.50 and 7.33 and 9.92 and 13.83 and 5.42 and 10.17 and 11.58 and 12.67 and 3.58
same,Periosteal Bone Width (40*25x measure),[3],40.00 μm and 53.33 μm and 106.67 μm and 120.00 μm and 33.33 μm and 86.67 μm and 140.00 μm and 80.00 μm and 26.67 μm
same,Histopathology scores for knee and ankle joints,murine CIA,decreased histopathology scores
same,Periosteal bone width of paw and knee joints,murine CIA,slightly decreased
same,"Cartilage damage, bone resorption and inflammation in knees (microphotographs)","murine CIA, 103 mg/kg oral","decreasing of cartilage damage, bone resorption and inflammation in knees"
same,Clinical arthritis score (severity of inflammation),"murine CIA, MT-SYK-03 103 mg/kg oral",reduced the severity of inflammation
same,"% inhibition to Vehicle, Total AUC Sum (d1-11)","therapeutic/enrollment paw score, MT-SYK-03 103 mg/kg PO, BID (Group 4)",6%
same,"Total AUC Sum (d1-11), Mean","therapeutic/enrollment paw score, MT-SYK-03 103 mg/kg PO, BID (Group 4), group mean",59.75
same,Total AUC Sum (d1-11),"therapeutic/enrollment paw score, MT-SYK-03 103 mg/kg PO, BID (Group 4), individual animals, 103 mg/kg",79 and 81 and 73 and 33 and 42 and 102 and 83 and 38 and 36
same,"% inhibition to Vehicle, paw score Day 1","therapeutic/enrollment paws, Day 1, MT-SYK-03 103 mg/kg PO, BID (Group 4)",0%
same,"Average Paw Score Per Arthritis Day, Day 1, Mean","therapeutic/enrollment paws, Day 1, MT-SYK-03 103 mg/kg PO, BID (Group 4), group mean",3.20
same,"Average Paw Score Per Arthritis Day, Day 1","therapeutic/enrollment paws, Day 1, MT-SYK-03 103 mg/kg PO, BID (Group 4), individual animals, 103 mg/kg",4 and 2 and 6
same,"% inhibition to Vehicle, paw score Day 2","therapeutic/enrollment paws, Day 2, MT-SYK-03 103 mg/kg PO, BID (Group 4)",19%
same,"Average Paw Score Per Arthritis Day, Day 2, Mean","therapeutic/enrollment paws, Day 2, MT-SYK-03 103 mg/kg PO, BID (Group 4), group mean",3.80
same,"Average Paw Score Per Arthritis Day, Day 2","therapeutic/enrollment paws, Day 2, MT-SYK-03 103 mg/kg PO, BID (Group 4), individual animals, 103 mg/kg",4 and 6 and 2 and 3
same,"% inhibition to Vehicle, paw score Day 3","therapeutic/enrollment paws, Day 3, MT-SYK-03 103 mg/kg PO, BID (Group 4)",8%
same,"Average Paw Score Per Arthritis Day, Day 3, Mean","therapeutic/enrollment paws, Day 3, MT-SYK-03 103 mg/kg PO, BID (Group 4), group mean",5.40
same,"Average Paw Score Per Arthritis Day, Day 3","therapeutic/enrollment paws, Day 3, MT-SYK-03 103 mg/kg PO, BID (Group 4), individual animals, 103 mg/kg",6 and 8 and 3 and 4 and 9
same,"% inhibition to Vehicle, paw score Day 4","therapeutic/enrollment paws, Day 4, MT-SYK-03 103 mg/kg PO, BID (Group 4)",6%
same,"Average Paw Score Per Arthritis Day, Day 4, Mean","therapeutic/enrollment paws, Day 4, MT-SYK-03 103 mg/kg PO, BID (Group 4), group mean",5.80
same,"Average Paw Score Per Arthritis Day, Day 4","therapeutic/enrollment paws, Day 4, MT-SYK-03 103 mg/kg PO, BID (Group 4), individual animals, 103 mg/kg",7 and 8 and 6 and 4 and 10 and 3
same,"% inhibition to Vehicle, paw score Day 5","therapeutic/enrollment paws, Day 5, MT-SYK-03 103 mg/kg PO, BID (Group 4)",6%
same,"Average Paw Score Per Arthritis Day, Day 5, Mean","therapeutic/enrollment paws, Day 5, MT-SYK-03 103 mg/kg PO, BID (Group 4), group mean",6.20
same,"Average Paw Score Per Arthritis Day, Day 5","therapeutic/enrollment paws, Day 5, MT-SYK-03 103 mg/kg PO, BID (Group 4), individual animals, 103 mg/kg",8 and 7 and 4 and 11 and 3 and 9
same,"% inhibition to Vehicle, paw score Day 6","therapeutic/enrollment paws, Day 6, MT-SYK-03 103 mg/kg PO, BID (Group 4)",5%
same,"Average Paw Score Per Arthritis Day, Day 6, Mean","therapeutic/enrollment paws, Day 6, MT-SYK-03 103 mg/kg PO, BID (Group 4), group mean",6.30
same,"Average Paw Score Per Arthritis Day, Day 6","therapeutic/enrollment paws, Day 6, MT-SYK-03 103 mg/kg PO, BID (Group 4), individual animals, 103 mg/kg",8 and 4 and 11 and 3 and 9
same,"% inhibition to Vehicle, paw score Day 7","therapeutic/enrollment paws, Day 7, MT-SYK-03 103 mg/kg PO, BID (Group 4)",3%
same,"Average Paw Score Per Arthritis Day, Day 7, Mean","therapeutic/enrollment paws, Day 7, MT-SYK-03 103 mg/kg PO, BID (Group 4), group mean",6.60
same,"Average Paw Score Per Arthritis Day, Day 7","therapeutic/enrollment paws, Day 7, MT-SYK-03 103 mg/kg PO, BID (Group 4), individual animals, 103 mg/kg",9 and 8 and 4 and 11
same,"% inhibition to Vehicle, paw score Day 8","therapeutic/enrollment paws, Day 8, MT-SYK-03 103 mg/kg PO, BID (Group 4)",3%
same,"Average Paw Score Per Arthritis Day, Day 8, Mean","therapeutic/enrollment paws, Day 8, MT-SYK-03 103 mg/kg PO, BID (Group 4), group mean",6.80
same,"Average Paw Score Per Arthritis Day, Day 8","therapeutic/enrollment paws, Day 8, MT-SYK-03 103 mg/kg PO, BID (Group 4), individual animals, 103 mg/kg",10 and 9 and 3 and 5 and 11 and 4
same,"% inhibition to Vehicle, paw score Day 9","therapeutic/enrollment paws, Day 9, MT-SYK-03 103 mg/kg PO, BID (Group 4)",5%
same,"Average Paw Score Per Arthritis Day, Day 9, Mean","therapeutic/enrollment paws, Day 9, MT-SYK-03 103 mg/kg PO, BID (Group 4), group mean",6.90
same,"Average Paw Score Per Arthritis Day, Day 9","therapeutic/enrollment paws, Day 9, MT-SYK-03 103 mg/kg PO, BID (Group 4), individual animals, 103 mg/kg",10 and 9 and 3 and 5 and 12 and 4
same,"% inhibition to Vehicle, paw score Day 10","therapeutic/enrollment paws, Day 10, MT-SYK-03 103 mg/kg PO, BID (Group 4)",7%
same,"Average Paw Score Per Arthritis Day, Day 10, Mean","therapeutic/enrollment paws, Day 10, MT-SYK-03 103 mg/kg PO, BID (Group 4), group mean",6.90
same,"Average Paw Score Per Arthritis Day, Day 10","therapeutic/enrollment paws, Day 10, MT-SYK-03 103 mg/kg PO, BID (Group 4), individual animals, 103 mg/kg",10 and 9 and 3 and 5 and 12 and 4
same,"% inhibition to Vehicle, paw score Day 11","therapeutic/enrollment paws, Day 11, MT-SYK-03 103 mg/kg PO, BID (Group 4)",7%
same,"Average Paw Score Per Arthritis Day, Day 11, Mean","therapeutic/enrollment paws, Day 11, MT-SYK-03 103 mg/kg PO, BID (Group 4), group mean",6.90
same,"Average Paw Score Per Arthritis Day, Day 11","therapeutic/enrollment paws, Day 11, MT-SYK-03 103 mg/kg PO, BID (Group 4), individual animals, 103 mg/kg",10 and 9 and 3 and 5 and 12 and 4
